The values below come from patent US4145419A, “Novel imidazobenzoxazines” (Roussel Uclaf, priority 1976, dated 1979).

Like-named read-outs stand apart in the source and are kept apart here.

The subject of the assay is passive cutaneous anaphylaxis. Kind of assay: Passive Cutaneous Anaphylaxis (PCA) in Rats. It counts as in vivo. As to conditions: Rattus norvegicus, dosed immediately prior to intravenous antigen challenge, read-out: ED50 (dose of drug giving 50% inhibition). The source says: Passive Cutaneous Anaphylaxis (PCA) in Rats
Cutaneous anaphylaxis can be induced in rats by intradermal (ID) sensitization with antiserum followed three days later by systemic challenge with antigen. Evans blue dye injected with the antigen is used as a marker to assess the severity of the local response. Anti-allergic drugs inhibit this reaction. This method has been described by OVARY (1962) "Passive Cutaneous Anaphylaxis in Allergology" Page 358-367 Ed. Brown: Pergamon Press:-male rats weighing 180-220 grams are used in groups of seven.
Preparation of Antigen for Sensitization (Alum precipitated ovalbumen)
1. Wash 120 grams of Al(OH)3 gel in 140 ml of saline (use of a macerater facilitates mixing).
2. Centrifuge at 3,000 r.p.m. for about 10 minutes.
3. Resuspend the precipitate with 300 ml of albumen egg powder (1.3 mg/ml) in saline and allow to stand for 30 minutes.
4. Centrifuge at 3,000 r.p.m. for 10 minutes.
5. Weigh the wet precipitate and to each gram weight add 1 ml of saline. Store in refrigerator (Quantity sufficient for 60 rats for a 3 day sensitization program).
Preparation of Antiserum (anti-ovalbumen)
1 ml of the alum precipitated ovalbumen was injected subcutaneously into rats weighing 180-200 grams on days 0,2,4. The rats were bled on day 14 either by cardiac puncture or via the dorsal abdominal aorta. Equal quantities of serum from each animal were pooled and thoroughly mixed and 2 ml aliquots were stored at -20° C. in plastic tubes.
The antiserum for sensitization was diluted so that an ID injection of 0.1 ml into control animals would give an average score of a single spot of between 2.0-3.5 using a 4 point scoring system.
(A) SENSITIZATION: The rats were anaesthetized with Nembutal (40-60 mg/kg i.p.) and were then sensitized by four ID injections (0.1 ml each) on their shaved backs. The animals were then left for a period of three days to develop sensitization.
(B) CHALLENGE: The sensitized rats were dosed orally or intraveneously with the drug immediately prior to intraveneous challage via the superficial penile vein with 1 ml of an antigen/Evans blue mixture (1 mg albumen egg powder in 0.5 ml saline plus 0.5 ml of 1% Evans blue). The injection were speeded up by using an automatic 1 ml self-filling glass syringe. The "challenged" rats were killed after 30 minutes, (usually pithed) and their skin on the dorsal surface was removed. The degree and area of blueing, proportional to the anaphylactic reaction was assessed on a four point scoring system.
1. Total scores for sites 1,2,3 and 4 = X
2. mean value of X for each group = X
3. x t = X for test group X c = X for control group
4. % inhibition = X c - X t/X c X 100/1
5. ed50 = dose of drug giving 50% inhibition.
ED50 values for the compounds tested in the passive cutaneous anaphylaxis screen (in rats) are as follows: […]

A word on the ED50: it is the midpoint of the dose-response relation. Turning to `COC(=O)c1cn2c(n1)COc1ccccc1-2` [Example 1, methyl 4H-imidazo-[2,1-c][1,4]-benzoxazine-2-carboxylate], under “po, P.O.”, the median effective dose (ED50) amounted to 10.8 mg/kg.
Take `O=C(O)c1cn2c(n1)COc1ccccc1-2` [Example 2, 4H-imidazo-[2,1-c][1,4]-benzoxazine-2-carboxylic acid]: the ED50 (I.V.) was determined as 1.95 mg/kg and the ED50 (po, P.O.) was found to be 2.88 mg/kg.
On to `O=C(OCCN1CCOCC1)c1cn2c(n1)COc1ccccc1-2` [Example 5, 2-morpholinoethyl 4H-imidazo-[2,1-c][1,4]-benzoxazine-2-carboxylate], for which the ED50 came to 1.75 mg/kg (I.V.) and 10.7 mg/kg (po, P.O.).
For the molecule `O=C(O)c1cn2c(n1)COc1ccc([N+](=O)[O-])cc1-2` [Example 10, 8-nitro-4H-imidazo-[2,1-c][1,4]-benzoxazine-2-carboxylic acid], for the setting “I.V.”, the median effective dose (ED50) came out at 2.2 mg/kg.
For the molecule `CC(=O)Nc1ccc2c(c1)-n1cc(C(=O)O)nc1CO2` [Example 11, 8-acetamido-4H-imidazo-[2,1-c][1,4]-benzoxazine-2-carboxylic acid], the ED50 reads like this: (I.V.) 0.073 mg/kg; (po, P.O.) above 10 mg/kg.
For the molecule `O=C(O)C(=O)Nc1ccc2c(c1)-n1cc(C(=O)O)nc1CO2` [Example 12, 8-oxalamino-4H-imidazo-[2,1-c][1,4]-benzoxazine-2-carboxylic acid], the ED50 (po, P.O.) was found to be 3.85 mg/kg.
